The subject of series [1] is SU-DHL10. As to the kind of experiment: Antiproliferative activity against human SU-DHL-10 cells assessed as inhibition of cell proliferation incubated for 72 hrs by MTT assay. The format is functional, cell-based. The following applies: SU-DHL10, 72 h. On the technique in general: Tetrazolium assays rely on reduction of a dye to a coloured formazan, in cell work by metabolically active cells.

Series [2] is described as follows: Antiproliferative activity against human MINO cells assessed as inhibition of cell proliferation incubated for 72 hrs by MTT assay. Format: functional, cell-based.
Series [3] has as its system VL51. Briefly: Antiproliferative activity against human VL51 cells assessed as proliferating cells at 1 uM incubated for 72 hrs by MTT assay relative to control. Format: functional.
The subject of series [4] is SU-DHL10. Briefly: Antiproliferative activity against human SU-DHL-10 cells assessed as proliferating cells at 1 uM incubated for 72 hrs by MTT assay relative to control. Format: functional.
Series [5] is described as follows: Antiproliferative activity against human HBL1 cells assessed as proliferating cells at 1 uM incubated for 72 hrs by MTT assay relative to control. The format is functional.
The next series has as its target Tubulin (Homo sapiens) (UniProt P68371+Q9H4B7+P0DPH7+P68366+Q13509+Q71U36+P04350+Q3ZCM7+P07437+P68363+Q9BQE3+Q6PEY2+Q13885+Q9BVA1+Q9BUF5). Briefly: Inhibition of [3H]Colchicine binding to tubulin (unknown origin) at 5 uM relative to control. Format: protein-complex assay.
Series [6] in a line: Antiproliferative activity against human HBL1 cells assessed as inhibition of cell proliferation incubated for 72 hrs by MTT assay. The conditions noted are these: HBL1, 72 h. Format: functional, cell-based.
The next series deals with MCF7. As to the kind of experiment: Cytotoxicity against human MCF7 cells assessed as cell growth inhibition. The format is functional, cell-based.
The next series deals with Tubulin. As to the kind of experiment: Inhibition of tubulin assembly (unknown origin). The format is protein-complex assay, Homo sapiens.
The test system of series [7] is VL51. As to the kind of experiment: Antiproliferative activity against human VL51 cells assessed as inhibition of cell proliferation incubated for 72 hrs by MTT assay. The format is functional, cell-based. The following applies: VL51, 72 h.
Series [8] can be described thus: Antiproliferative activity against human MINO cells assessed as proliferating cells at 1 uM incubated for 72 hrs by MTT assay relative to control. The format is functional.
Series [9] relates to VL51. As to the kind of experiment: Induction of cell cycle arrest in human VL51 cells assessed as accumulation at subG0 phase at early time point at 50 to 500 nM incubated upto 72 hrs by […]. Format: functional. The following applies: dose 50-500 nM.
In series [10] the test system is MINO. Briefly: Induction of cell cycle arrest in human MINO cells assessed as accumulation at G2/M phase at 50 nM incubated for 24 to 72 hrs by […]. Format: functional. The following applies: time 24-72 hrs.
Series [11] concerns MINO. As to the kind of experiment: Induction of apoptosis in human MINO cells at 50 to 500 nM incubated for 24 to 72 hrs by annexin V-FITC/PI staining based analysis. Format: functional, cell-based. The following applies: dose 50-500 nM, time 24-72 hrs.
The test system of another series is PBMC. Briefly: Induction of apoptosis in human PBMC cells at 500 nM incubated for 24 to 48 hrs by annexin V staining based analysis relative to control. The conditions noted are these: 0.5 µM, time 24-48 hrs. Format: toxicity, cell-based.
The subject of series [12] is VL51. Briefly: Induction of apoptosis in human VL51 cells at 50 to 500 nM incubated for 24 to 72 hrs by annexin V-FITC/PI staining based analysis. Format: functional, cell-based. The following applies: dose 50-500 nM, time 24-72 hrs.
Series [13] relates to VL51. Briefly: Induction of cell cycle arrest in human VL51 cells assessed as accumulation at G2/M phase at 50 nM incubated for 24 to 72 hrs by […]. The following applies: time 24-72 hrs. The format is functional.
The subject of series [14] is MINO. As to the kind of experiment: Induction of cell cycle arrest in human MINO cells assessed as accumulation at subG0 phase at early time point at 50 to 500 nM incubated upto 72 hrs by […]. The conditions noted are these: dose 50-500 nM. Format: functional.
The subject of series [15] is MINO. Briefly: Upregulation of CENPE in human MINO cells at 100 nM incubated for 8 to 24 hrs by RNA sequencing analysis. The following applies: time 8-24 hrs. The format is functional, cell-based.
Series [16] deals with MINO. Briefly: Upregulation of PLK1 in human MINO cells at 100 nM incubated for 8 to 24 hrs by RNA sequencing analysis. The format is functional, cell-based. The conditions noted are these: time 8-24 hrs.
Series [17] relates to MINO. As to the kind of experiment: Upregulation of AURKA in human MINO cells at 100 nM incubated for 8 to 24 hrs by RNA sequencing analysis. The conditions noted are these: time 8-24 hrs. Format: functional, cell-based.
Series [18] concerns MINO. Briefly: Upregulation of BIRC5 in human MINO cells at 100 nM incubated for 8 to 24 hrs by RNA sequencing analysis. The following applies: time 8-24 hrs. The format is functional, cell-based.
In series [19] the test system is MINO. Briefly: Upregulation of CCNB2 in human MINO cells at 100 nM incubated for 8 to 24 hrs by RNA sequencing analysis. The format is functional, cell-based. The conditions noted are these: time 8-24 hrs.
Series [20] relates to MINO. Briefly: Upregulation of CENPA in human MINO cells at 100 nM incubated for 8 to 24 hrs by RNA sequencing analysis. Format: functional, cell-based. The conditions noted are these: time 8-24 hrs.
Series [21] concerns MINO. Briefly: Upregulation of CCNB1 in human MINO cells at 100 nM incubated for 8 to 24 hrs by RNA sequencing analysis. The format is functional, cell-based. The conditions noted are these: time 8-24 hrs.

SMILES strings stand for the structures. Active and inactive are the calls of the source. No cut-off for these calls is given here.

As for `COc1ccc(Cn2cc3c(c2-c2cc(OC)c(OC)c(OC)c2)CCc2cnoc2-3)cc1`, the IC50 with SU-DHL10 [1] turned out to be 500 nM; in series [2] it was 370 nM; in series [6], 470 nM; in the series with MCF7, 600 nM; against Tubulin, 3200 nM; with VL51 [7] it was 270 nM. Also, the Activity worked out at 37.9% in the series with VL51 [3], 12.7% with SU-DHL10 [4], 30.7% in series [5] and 8.7% in [8]. Moreover, the inhibition at Tubulin (Homo sapiens) was 34%.
For the compound `COc1ccc(/C=C\c2cc(OC)c(OC)c(OC)c2)cc1O` [COMBRETASTATIN A4], the IC50 in the series on MCF7 was found to be 18 nM.
With `COc1ccc(Cn2cc3c(c2-c2ccccc2)CCc2cnoc2-3)cc1N`, the IC50 was 260 nM in the series with SU-DHL10 [1]; 230 nM in series [2]; 270 nM in series [6]; 370 nM in the series on MCF7; 1700 nM against Tubulin; 250 nM in the series with VL51 [7]. Further, the Activity in the series with VL51 [3] stood at 37.6%; in the series on SU-DHL10 [4], 13%; in [5], 27.6%; in [8], 10.5%. Moreover, on Tubulin (Homo sapiens), the inhibition turned out to be 72%.
Compound `COc1ccc(Cn2cc3c(c2-c2ccccc2)CCc2cnoc2-3)cc1OC` registered an inhibition at Tubulin (Homo sapiens) of 34%. In addition, the results for the IC50 with MCF7 and on Tubulin were 4500 nM and 3400 nM, respectively.
As for `CCOC(=O)c1c2c(cn1Cc1ccc(OC)cc1)-c1oncc1CC2`, the IC50 was above 5000 nM in the series with MCF7 and 8000 nM at Tubulin.
Take `COc1ccc(Cn2cc3c(c2-c2ccccc2)CCc2c(CN4CCCC4)noc2-3)cc1`: the IC50 with MCF7 was above 5000 nM; against Tubulin, 12000 nM.
For the compound `c1ccc(Cn2cc3c(c2-c2ccccc2)CCc2cnoc2-3)cc1`, the inhibition on Tubulin (Homo sapiens) worked out at 21%. In addition, the IC50 is above 5000 nM in the series with MCF7 and 4600 nM on Tubulin.
`COc1ccc(Cn2cc3c(c2-c2ccccc2)CCc2cnoc2-3)cc1`: the IC50 with SU-DHL10 [1] worked out at 280 nM; in series [2] it was 230 nM; in series [6], 250 nM; in the series with MCF7 it was 380 nM; at Tubulin it was 2100 nM; with VL51 [7], 270 nM. In addition, the Activity in the series with VL51 [3] amounted to 40.9%; with SU-DHL10 [4] it was 13%; in [5], 21.5%; in series [8], 8.4%. On Tubulin (Homo sapiens), this compound gave an inhibition of 77%.
Take `COc1ccc(Cn2cc3c(c2-c2ccccc2)CCc2cnoc2-3)cc1[N+](=O)[O-]`: the inhibition on Tubulin (Homo sapiens) came out at 55%. For the same compound, the IC50 with MCF7 was found to be 340 nM; against Tubulin, 1500 nM.
On to `COc1ccc(Cn2cc3c(c2-c2cc(OC)c(OC)c(OC)c2)CCc2cnoc2-3)cc1N`, for which the 50% inhibitory concentration (IC50) was found to be 100 nM in the series on SU-DHL10 [1]; 70 nM in series [2]; 90 nM in series [6]; 240 nM in the series with MCF7; 1700 nM against Tubulin; 100 nM with VL51 [7]. The Activity with VL51 [3] is 34.7%; in the series on SU-DHL10 [4] it was 12%; in [5], 12.9%; in [8], 9.31%. The inhibition at Tubulin (Homo sapiens) turned out to be 57%.
As to `COc1cc(Cn2cc3c(c2)-c2oncc2CC3)cc(OC)c1OC`, the IC50 in the series on SU-DHL10 [1] came out at 70 nM; in [2] it was 70 nM; in [6] it was 80 nM; with MCF7 it was 210 nM; against Tubulin it was 2300 nM; in the series with VL51 [7] it was 120 nM. The result in the series with VL51 [9], in the series on MINO [10], in the series with MINO [11], in the series with VL51 [12], with VL51 [13] and in the series on MINO [14] was Active. Also, the Activity stood at 28.1% in the series on VL51 [3]; 13.8% with SU-DHL10 [4]; 7.3% in series [5]; 15% with PBMC; 8.6% in series [8]. On Tubulin (Homo sapiens), the inhibition came out at 80%.
Turning to `COc1ccc(Cn2cc3c(c2-c2ccc(OC)cc2)CCc2cnoc2-3)cc1`, the IC50 with SU-DHL10 [1] was 1700 nM; in series [2] it was 1100 nM; in [6], 1200 nM; in the series on MCF7, above 5000 nM; against Tubulin, 2000 nM; with VL51 [7], 1100 nM. In addition, the Activity in the series with VL51 [3] was determined as 49.4%; in the series on SU-DHL10 [4] it was 47.4%; in series [5], 57.1%; in series [8], 29.9%. Further, on Tubulin (Homo sapiens), the inhibition stood at 55%.
Regarding `COc1cccc(Cn2cc3c(c2)-c2oncc2CC3)c1`, the 50% inhibitory concentration (IC50) in the series on SU-DHL10 [1] was 800 nM; in series [2] it was 700 nM; in series [6], 700 nM; in the series on MCF7, 550 nM; on Tubulin it was 5200 nM; in the series on VL51 [7], 1000 nM. Moreover, the Activity with VL51 [3] came to 44.7%; with SU-DHL10 [4], 14%; in series [5], 37.9%; in series [8], 8.9%. Besides, on Tubulin (Homo sapiens), the inhibition came to 69%.
Turning to `COc1cc(Cn2cc3c(c2)-c2oncc2CC3)cc(OC)c1`, the IC50 is 30 nM in the series with SU-DHL10 [1]; 20 nM in series [2]; 20 nM in series [6]; 290 nM with MCF7; 2800 nM on Tubulin; 40 nM in the series on VL51 [7]. Moreover, the result with VL51 [9], with MINO [10], with MINO [11], with MINO [15], in the series with MINO [16] and in the series on MINO [17] was Active. Further, the outcome in the series with VL51 [12], with MINO [18], in the series with MINO [19], with VL51 [13], in the series on MINO [14] and in the series with MINO [20] was Active. Besides, the outcome in the series with MINO [21] was Active. In addition, the Activity in the series with VL51 [3] is on record as 38%; in the series on SU-DHL10 [4], 30.5%; in series [5] it was 7.1%; with PBMC, 15%; in [8] it was 0.8%. On Tubulin (Homo sapiens), this compound gave an inhibition of 88%.

Broadly, the IC50 is the concentration that inhibits the measured activity by half. One may read the inhibition as the change of the read-out against control, counted positive when it falls. Low values mean little suppression, high ones strong suppression.
